Biological target: T1, porcine pancreatic elastase (Sus scrofa, UniProt P00772)
T1 construct: purchased EPC (Elastin Products Company) EC134
Assay: Inhibition of porcine pancreatic elastase
Type: biochemical
Settings: elastase stock 75 μg/mL (5 μL), Tris-HCl pH 8.0; compound 1 μL in DMSO; preincubated 15 min at room temperature; substrate 2 mM N-succinyl-Ala-Ala-Ala-p-nitroanilide solution (15 μL); absorbance 405 nm every 30 s, initial slope vs uninhibited; triplicate
Method: A stock solution of porcine pancreatic elastase (Elastase-high purity; EPC, EC134) was prepared at a concentration of 75 μg/mL in Tris-HCl (pH 8.0). Aliquots of test compounds (1 μL, DMSO) were preincubated with 79 μL Tris-HCl (pH 8.0) and 5 μL elastase stock for 15 min at room temperature in a microtiter plate. After this time, 15 μL substrate solution was added (2 mM N-succinyl-Ala-Ala-Ala-p-nitroanilide in Tris-HCl, pH 8.0) to each well, and the reaction was followed by measuring the absorbance at 405 nm every 30 s. Enzyme activity was determined by calculating the initial slope of each progress curve, expressed as a percentage of the slope of the uninhibited reaction.

T1 sequence (P00772 27-266): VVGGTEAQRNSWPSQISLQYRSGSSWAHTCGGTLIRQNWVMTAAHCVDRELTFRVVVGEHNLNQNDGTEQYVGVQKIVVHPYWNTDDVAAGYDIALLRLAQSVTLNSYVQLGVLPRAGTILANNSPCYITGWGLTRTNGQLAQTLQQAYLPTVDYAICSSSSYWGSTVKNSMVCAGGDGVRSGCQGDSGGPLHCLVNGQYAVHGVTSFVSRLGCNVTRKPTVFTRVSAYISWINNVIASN

| Compound | IC50 |
| --- | --- |
| C/C=C1\NC(=O)[C@@H](NC(=O)[C@@H](NC(=O)[C@H](C)NC(=O)CCC)C(C)C)[C@@H](C)OC(=O)[C@H](C(C)C)NC(=O)[C@H](Cc2ccc(O)c(Br)c2)N(C)C(=O)[C@H](Cc2ccccc2)N2C(=O)[C@H](CC[C@H]2O)NC1=O [Compound 3, Lyngbyastatin 10] | 120 ± 16 nM |
| C/C=C1\NC(=O)[C@@H](NC(=O)[C@@H](NC(=O)[C@H](C)NC(=O)CCC)C(C)C)[C@@H](C)OC(=O)[C@H](C(C)C)NC(=O)[C@H](Cc2ccc(O)cc2)N(C)C(=O)[C@H](Cc2ccccc2)N2C(=O)[C@H](CC[C@H]2O)NC1=O [Compound 2, Lyngbyastatin 9] | 210 ± 10 nM |
| C/C=C1\NC(=O)[C@@H](NC(=O)[C@@H](NC(=O)[C@H](C)NC(C)=O)C(C)C)[C@@H](C)OC(=O)[C@H](C(C)C)NC(=O)[C@H](Cc2ccc(O)cc2)N(C)C(=O)[C@H](Cc2ccccc2)N2C(=O)[C@H](CC[C@H]2O)NC1=O [Compound 1, Lyngbyastatin 8] | 123 ± 2 nM |
